Key:
Abcd1^-/Abcd2^-/- mice [1] = assay: Bar cross test; assay type: in vivo; conditions: double knockout mice with TUDCA; Figure 3C
Procedure: (§1) The bile acid tauroursodeoxycholic acid TUDCA (Prodotti Chimici e Alimentari S.p.A., Italy) was mixed into AIN-76A chow (Dyets) at 0.4% w/w. Male mice were randomly assigned to one of the following groups: wild-type mice (n=10) that received normal AIN-76A chow, Abcd1^-/- mice (n=10) that received normal AIN-76A chow and Abcd1^-l- mice (n=10) that received AIN-76A chow containing TUDCA. The animals were treated for 3 months starting at 9 months of age to assess its effect on the progression of the biochemical signs of X-linked adrenoleukodystrophy. […]
(§2) For behavioral testing, assessment of hindlimb clasping was done by suspending mice from their tails until it reached a vertical position, but allowing the mice to grab the grill of the lid of the cage with the forelimbs, adapted from Dumser et al. cited supra. Hindlimb reflex was analysed for 10s in three consecutive trials separated by 5 min rest. […]
(§3) Locomotor deficits in Abcd1 /Abcd2^-/- mice were evaluated using clasping, treadmill and bar cross experiments after TUDCA treatment as described (Dumser M- et al., 2007 cited supra, Launay N. et al., 2015 cited supra). […]

[2] = Weight and food intake during treatment in chow; assay type: in vivo, mice; conditions: 0.4% w/w in AIN-76A chow, either treatment protocol (3 months from 9 months; 4 months from 13 months)
Procedure: (§4) The bile acid tauroursodeoxycholic acid TUDCA (Prodotti Chimici e Alimentari S.p.A., Italy) was mixed into AIN-76A chow (Dyets) at 0.4% w/w. Male mice were randomly assigned to one of the following groups: wild-type mice (n=10) that received normal AIN-76A chow, Abcd1^-/- mice (n=10) that received normal AIN-76A chow and Abcd1^-l- mice (n=10) that received AIN-76A chow containing TUDCA. The animals were treated for 3 months starting at 9 months of age to assess its effect on the progression of the biochemical signs of X-linked adrenoleukodystrophy. The double knockout mice and their control littermates were randomly assigned to one of the following groups: wild-type mice (n=10) that received normal AIN-76A chow; double knockout mice (n =10) that received normal AIN-76A chow; and double knockout mice (n =10) that received AIN-76A chow containing TUDCA. The animals were treated for 4 months starting at 13 months of age to coincide with the onset of clinical signs. TUDCA had no effect on weight or food intake under either treatment protocol.

Abcd1^-/Abcd2^-/- mice [3] = assay: Hindlimb clasping test; assay type: in vivo; conditions: double knockout mice with TUDCA; untreated score 1, wild type 2; Figure 3A
Procedure: as §1, §2, §3

Abcd1^-/Abcd2^-/- mice [4] = assay: Treadmill test; assay type: in vivo; conditions: double knockout mice, after 3 months of treatment with TUDCA; Figure 3B
Procedure: as §1, §2, §3

Abcd1 null mice = assay: Immunoblot (Western blot) of ER stress and UPR markers in spinal cords of X-ALD mice; assay type: in vivo; conditions: diet with 0.4 % (wt/wt) TUDCA for 3 months
Source text: The generation and genotyping of Abcd1 null mice have been previously described (Pujol A. et al., Hum Mol Genet 2002; 11:499-505, Lu JF. et al., Proc.Natl.Acad.Sci.U.S.A 1997; 94:9366-9371.). Mice used for experiments were of a pure C57BL/6J background. Abcd1 null and WT mice were separated into control and treated groups. Treated groups were fed with a mixture of antioxidants that included 1000 iu/kg Vitamin E and 0.5% α-lipoic acid in the diet and 1% N-acetyl-cysteine (NAC) in water. Daily feedings were initiated at 8 months of age and were continued for 4 months until sacrifice.
as §1
Tissues were lysed in ice-cold RIPA buffer (50 mM Tris-HCl, pH 8, 12 mM deoxycholic acid, 150 mM NaCl and 1% NP40, supplemented with Complete Protease Inhibitor Cocktail, Roche) using a Teflon-on-glass homogenizer and then centrifuged at 1500 x g for 10 min at 4°C. The protein concentration was determined using a BCA protein assay kit (Thermo Fisher Scientific, Inc.). […]
To determine whether ER stress is regulated by redox imbalance in vivo, the inventors treated with antioxidants during 4 months the presymptomatic Abcd1 null mice at 8 months of age. Next, they assessed by Western Blots the presence of ER stress and UPR responses.
The mouse model of the disease, the Abcd1 null mouse, develops a late onset axonopathy that resembles the most frequent X-linked adrenoleukodystrophy phenotype, AMN. […] Then, the inventors determined the protein levels of ER stress marker dysregulated in the Abcd1 null mice. […]

Abcd1^-/Abcd2^-/- mice [5] = assay: Immunohistochemistry of axonal degeneration, microgliosis and astrocytosis in spinal cord; assay type: in vivo; conditions: 17-month-old double knockout mice, 0.4% w/w TUDCA in chow for 4 months from 13 months of age
Procedure: as §4
[…] Immunohistochemistry was carried out with the avidin-biotin peroxidase method and at least five sections of the spinal cord were analysed per animal and per stain. […] The results were expressed as the mean ± standard deviation. […]

With `C[C@H](CCC(=O)NCCS(=O)(=O)O)[C@H]1CC[C@H]2[C@@H]3[C@@H](O)C[C@@H]4C[C@H](O)CC[C@]4(C)[C@H]3CC[C@]12C` [TUDCA, 3α,7β-Dihydroxy-5β-cholanoyltaurine] the number of slips (Abcd1^-/Abcd2^-/- mice [1]) was “normalized”, the “time necessary to cross the bar” value (Abcd1^-/Abcd2^-/- mice [1]) was “normalized” and the food intake [2] was “no effect”. The weight [2] was “no effect”, the median clasping score (Abcd1^-/Abcd2^-/- mice [3]) was 1.75 and the “shock times and number of shocks” value (Abcd1^-/Abcd2^-/- mice [4]) was “indistinguishable from wild types”. For the same compound, the “ATF6, P-PERK, P-eif2α/eif2α, ATF4 and CHOP levels” value (Abcd1 null mice; Figure 1C) was “normalized”, the PDI upregulation (Abcd1 null mice; Figure 1D) was “prevented” and the “levels of the ER chaperones GRP78 and GRP94” value (Abcd1 null mice; Figure 1D) was “normalized”. The axonal damage markers (Abcd1^-/Abcd2^-/- mice [5]; APP and synaptophysin accumulation, Figures 2A, 2B) was “strikingly reduced to control levels” and the “numbers of reactive astrocytes and reactive microglia” value (Abcd1^-/Abcd2^-/- mice [5]; GFAP and Iba-1 staining, Figure 2A) was “strikingly reduced to control levels”.
